Values of other authors as cited in patent publication US7947313B2, “Compositions for diabetes treatment and prophylaxis” (Ayurvedic-Life International, LLC, priority 2003, dated 2011).

Tests used:
[1] = Fletcher et al. 1999
rat chorda tympani nerve = conditions: stimuli such as glucose, sucrose, glycine and saccharine; Fletcher et al. 1999

Substance: gurmarin
- effect in humans [1]: no apparent effect
- response of the rat chorda tympani nerve to sweet taste stimuli (rat chorda tympani nerve): suppressing the response
